Article PMC8222254, “Self-assembly of an anion receptor with metal-dependent kinase inhibition and potent in vitro anti-cancer properties” (Nature Communications, 2021)

How the values were obtained:
Assay in all cases: Kinase inhibition screen, cell-free 33P ATP assay at 10 μM
Type in all cases: biochemical
[1] = target: 140 purified human kinases (Homo sapiens, UniProt P45984)
How it was run: (§1)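 Each complex tested in duplicate at 10 μM; cell-free radiometric assay using ^33P ATP on purified enzymes. Hits mapped by HGNC symbol onto the kinome tree.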

[2] = target: 140 purified human kinases (Homo sapiens, UniProt P48730); settings: CK1δ
How it was run: as §1

[3] = target: 140 purified human kinases (Homo sapiens, UniProt P50750)
How it was run: as §1

[4] = target: 140 purified human kinases (Homo sapiens, UniProt Q6IQ55)
How it was run: as §1

[5] = target: 140 purified human kinases (Homo sapiens, UniProt Q14012)
How it was run: as §1

[6] = target: 140 purified human kinases (Homo sapiens, UniProt P27361)
How it was run: as §1

[7] = target: 140 purified human kinases (Homo sapiens, UniProt Q7KZI7)
How it was run: as §1

[8] = target: 140 purified human kinases (Homo sapiens, UniProt P51617)
How it was run: as §1

[9] = target: 140 purified human kinases (Homo sapiens, UniProt Q9P289)
How it was run: as §1

[10] = target: 140 purified human kinases (Homo sapiens, UniProt Q16539); settings: p38a MAPK
How it was run: as §1

[11] = target: T1, 140 purified human kinases (Homo sapiens, UniProt P53778); settings: p38g MAPK
T1 sequence (P53778 1-367): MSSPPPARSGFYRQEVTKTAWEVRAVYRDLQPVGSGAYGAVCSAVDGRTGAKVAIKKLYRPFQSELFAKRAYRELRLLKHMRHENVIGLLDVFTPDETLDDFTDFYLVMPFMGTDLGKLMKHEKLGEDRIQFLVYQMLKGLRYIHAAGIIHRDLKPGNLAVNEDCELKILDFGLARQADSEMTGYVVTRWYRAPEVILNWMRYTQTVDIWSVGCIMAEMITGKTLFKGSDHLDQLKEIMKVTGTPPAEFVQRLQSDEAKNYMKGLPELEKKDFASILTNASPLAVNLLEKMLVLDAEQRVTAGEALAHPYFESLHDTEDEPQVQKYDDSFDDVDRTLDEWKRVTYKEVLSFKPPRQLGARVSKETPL
How it was run: as §1

[12] = target: T2, 140 purified human kinases (Tribolium castaneum, UniProt D6WMX4); settings: PINK
T2 sequence (D6WMX4 6-570): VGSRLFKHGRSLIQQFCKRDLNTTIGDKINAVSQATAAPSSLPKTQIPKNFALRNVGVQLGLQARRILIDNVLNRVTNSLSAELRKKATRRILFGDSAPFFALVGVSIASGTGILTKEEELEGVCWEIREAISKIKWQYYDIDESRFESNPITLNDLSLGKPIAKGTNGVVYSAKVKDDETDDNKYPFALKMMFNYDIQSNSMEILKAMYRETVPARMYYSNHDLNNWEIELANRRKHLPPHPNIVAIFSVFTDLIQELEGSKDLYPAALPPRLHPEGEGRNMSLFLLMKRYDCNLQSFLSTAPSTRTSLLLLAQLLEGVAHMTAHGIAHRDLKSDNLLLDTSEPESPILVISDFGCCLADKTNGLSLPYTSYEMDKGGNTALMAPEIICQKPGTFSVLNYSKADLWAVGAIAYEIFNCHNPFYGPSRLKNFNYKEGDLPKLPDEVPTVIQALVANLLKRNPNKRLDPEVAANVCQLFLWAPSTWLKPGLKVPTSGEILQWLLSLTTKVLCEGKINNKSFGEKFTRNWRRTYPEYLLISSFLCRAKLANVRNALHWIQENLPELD
How it was run: as §1

Sequence of 140 purified human kinases (Homo sapiens, UniProt Q7KZI7) (Q7KZI7 whole entry): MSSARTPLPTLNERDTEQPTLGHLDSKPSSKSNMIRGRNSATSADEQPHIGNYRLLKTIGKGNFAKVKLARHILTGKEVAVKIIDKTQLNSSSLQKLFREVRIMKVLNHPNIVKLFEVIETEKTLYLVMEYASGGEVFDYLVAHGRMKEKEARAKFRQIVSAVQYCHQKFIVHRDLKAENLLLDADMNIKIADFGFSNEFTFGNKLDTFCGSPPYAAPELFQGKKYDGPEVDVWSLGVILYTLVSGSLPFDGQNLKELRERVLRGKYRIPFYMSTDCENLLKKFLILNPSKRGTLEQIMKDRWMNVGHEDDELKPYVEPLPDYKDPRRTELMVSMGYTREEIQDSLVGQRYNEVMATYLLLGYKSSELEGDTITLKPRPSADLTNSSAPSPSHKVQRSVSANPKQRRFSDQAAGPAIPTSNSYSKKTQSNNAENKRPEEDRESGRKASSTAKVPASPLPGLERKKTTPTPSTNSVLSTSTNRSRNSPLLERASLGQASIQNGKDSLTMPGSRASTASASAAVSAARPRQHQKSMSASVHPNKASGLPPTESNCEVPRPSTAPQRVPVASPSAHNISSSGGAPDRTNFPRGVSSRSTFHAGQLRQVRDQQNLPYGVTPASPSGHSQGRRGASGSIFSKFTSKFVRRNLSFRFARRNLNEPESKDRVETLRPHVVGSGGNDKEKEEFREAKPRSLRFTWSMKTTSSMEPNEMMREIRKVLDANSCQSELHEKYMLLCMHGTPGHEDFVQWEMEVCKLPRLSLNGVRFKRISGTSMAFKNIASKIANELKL
Sequence of 140 purified human kinases (Homo sapiens, UniProt Q14012) (Q14012 whole entry): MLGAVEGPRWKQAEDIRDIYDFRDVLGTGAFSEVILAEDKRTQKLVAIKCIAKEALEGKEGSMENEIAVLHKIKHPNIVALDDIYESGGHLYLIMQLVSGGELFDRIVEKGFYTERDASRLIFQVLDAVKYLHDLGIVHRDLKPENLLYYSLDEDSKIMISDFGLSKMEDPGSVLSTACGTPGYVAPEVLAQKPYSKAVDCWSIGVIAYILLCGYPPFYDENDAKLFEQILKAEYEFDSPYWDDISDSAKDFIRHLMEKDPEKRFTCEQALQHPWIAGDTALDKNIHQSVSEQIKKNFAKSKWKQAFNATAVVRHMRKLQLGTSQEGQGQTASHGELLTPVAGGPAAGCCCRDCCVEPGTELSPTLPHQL
Sequence of 140 purified human kinases (Homo sapiens, UniProt P50750) (P50750 whole entry): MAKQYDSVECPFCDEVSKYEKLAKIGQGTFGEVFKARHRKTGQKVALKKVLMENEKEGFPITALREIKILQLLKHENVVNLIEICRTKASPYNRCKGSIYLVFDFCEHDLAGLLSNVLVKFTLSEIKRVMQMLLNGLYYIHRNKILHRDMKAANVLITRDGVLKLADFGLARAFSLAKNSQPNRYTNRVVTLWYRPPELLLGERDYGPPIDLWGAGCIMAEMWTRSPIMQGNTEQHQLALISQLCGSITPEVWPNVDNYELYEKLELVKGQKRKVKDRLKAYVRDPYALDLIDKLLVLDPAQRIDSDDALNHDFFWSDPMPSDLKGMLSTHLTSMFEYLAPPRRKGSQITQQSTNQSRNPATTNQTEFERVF
Sequence of 140 purified human kinases (Homo sapiens, UniProt P27361) (P27361 whole entry): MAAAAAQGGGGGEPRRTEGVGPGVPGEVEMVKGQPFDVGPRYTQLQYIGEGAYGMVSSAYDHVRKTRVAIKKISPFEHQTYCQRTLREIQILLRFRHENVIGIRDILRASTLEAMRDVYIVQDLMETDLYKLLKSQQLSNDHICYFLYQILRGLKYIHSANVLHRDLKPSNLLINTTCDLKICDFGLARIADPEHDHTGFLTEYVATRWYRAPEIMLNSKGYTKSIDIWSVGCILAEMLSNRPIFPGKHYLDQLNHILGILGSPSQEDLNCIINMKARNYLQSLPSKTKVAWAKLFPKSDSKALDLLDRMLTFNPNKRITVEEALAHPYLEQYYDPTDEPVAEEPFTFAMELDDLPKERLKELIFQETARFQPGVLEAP
Sequence of 140 purified human kinases (Homo sapiens, UniProt P51617) (P51617 whole entry): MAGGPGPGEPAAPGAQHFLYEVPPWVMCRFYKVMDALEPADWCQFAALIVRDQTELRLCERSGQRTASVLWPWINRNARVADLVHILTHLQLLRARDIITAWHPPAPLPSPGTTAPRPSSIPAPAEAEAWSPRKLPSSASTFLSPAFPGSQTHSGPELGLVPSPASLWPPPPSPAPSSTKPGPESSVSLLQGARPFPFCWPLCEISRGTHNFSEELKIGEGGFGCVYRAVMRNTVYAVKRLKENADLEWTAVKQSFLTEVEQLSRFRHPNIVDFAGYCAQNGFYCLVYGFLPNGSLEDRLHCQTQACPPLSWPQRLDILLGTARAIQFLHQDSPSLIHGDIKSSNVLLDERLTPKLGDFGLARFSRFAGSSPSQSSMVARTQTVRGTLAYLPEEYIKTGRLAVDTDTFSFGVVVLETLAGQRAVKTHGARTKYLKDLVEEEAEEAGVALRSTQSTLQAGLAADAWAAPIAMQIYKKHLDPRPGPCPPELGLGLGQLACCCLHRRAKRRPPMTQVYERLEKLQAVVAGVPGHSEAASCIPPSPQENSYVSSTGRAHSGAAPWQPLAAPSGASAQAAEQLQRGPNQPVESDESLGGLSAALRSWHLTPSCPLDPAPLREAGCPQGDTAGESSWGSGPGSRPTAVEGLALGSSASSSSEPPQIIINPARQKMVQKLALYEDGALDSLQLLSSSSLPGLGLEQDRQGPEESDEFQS
Sequence of 140 purified human kinases (Homo sapiens, UniProt Q9P289) (Q9P289 whole entry): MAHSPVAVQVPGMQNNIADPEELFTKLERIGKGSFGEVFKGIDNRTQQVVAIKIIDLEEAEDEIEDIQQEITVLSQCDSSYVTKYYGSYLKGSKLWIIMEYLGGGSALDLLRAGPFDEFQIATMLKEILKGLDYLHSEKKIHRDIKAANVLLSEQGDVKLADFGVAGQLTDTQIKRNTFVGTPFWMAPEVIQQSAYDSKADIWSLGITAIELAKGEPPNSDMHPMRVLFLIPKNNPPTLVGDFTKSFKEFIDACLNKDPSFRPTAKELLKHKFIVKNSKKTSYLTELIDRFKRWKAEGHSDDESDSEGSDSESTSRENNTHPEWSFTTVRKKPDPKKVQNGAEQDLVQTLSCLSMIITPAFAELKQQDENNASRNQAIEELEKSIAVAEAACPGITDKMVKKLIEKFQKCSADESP
Sequence of 140 purified human kinases (Homo sapiens, UniProt P45984) (P45984 whole entry): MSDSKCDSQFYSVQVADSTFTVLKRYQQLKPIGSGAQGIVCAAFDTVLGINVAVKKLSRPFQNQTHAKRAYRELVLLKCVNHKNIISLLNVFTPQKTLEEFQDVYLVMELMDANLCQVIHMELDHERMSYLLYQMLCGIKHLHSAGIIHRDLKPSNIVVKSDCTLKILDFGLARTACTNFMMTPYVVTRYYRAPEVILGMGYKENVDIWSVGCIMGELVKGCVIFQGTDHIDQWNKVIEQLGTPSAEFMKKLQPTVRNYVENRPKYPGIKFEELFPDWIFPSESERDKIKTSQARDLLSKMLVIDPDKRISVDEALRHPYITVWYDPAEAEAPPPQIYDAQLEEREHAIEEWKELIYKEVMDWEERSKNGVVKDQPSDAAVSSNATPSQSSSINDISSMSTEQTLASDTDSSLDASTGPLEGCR
Sequence of 140 purified human kinases (Homo sapiens, UniProt Q6IQ55) (Q6IQ55 whole entry): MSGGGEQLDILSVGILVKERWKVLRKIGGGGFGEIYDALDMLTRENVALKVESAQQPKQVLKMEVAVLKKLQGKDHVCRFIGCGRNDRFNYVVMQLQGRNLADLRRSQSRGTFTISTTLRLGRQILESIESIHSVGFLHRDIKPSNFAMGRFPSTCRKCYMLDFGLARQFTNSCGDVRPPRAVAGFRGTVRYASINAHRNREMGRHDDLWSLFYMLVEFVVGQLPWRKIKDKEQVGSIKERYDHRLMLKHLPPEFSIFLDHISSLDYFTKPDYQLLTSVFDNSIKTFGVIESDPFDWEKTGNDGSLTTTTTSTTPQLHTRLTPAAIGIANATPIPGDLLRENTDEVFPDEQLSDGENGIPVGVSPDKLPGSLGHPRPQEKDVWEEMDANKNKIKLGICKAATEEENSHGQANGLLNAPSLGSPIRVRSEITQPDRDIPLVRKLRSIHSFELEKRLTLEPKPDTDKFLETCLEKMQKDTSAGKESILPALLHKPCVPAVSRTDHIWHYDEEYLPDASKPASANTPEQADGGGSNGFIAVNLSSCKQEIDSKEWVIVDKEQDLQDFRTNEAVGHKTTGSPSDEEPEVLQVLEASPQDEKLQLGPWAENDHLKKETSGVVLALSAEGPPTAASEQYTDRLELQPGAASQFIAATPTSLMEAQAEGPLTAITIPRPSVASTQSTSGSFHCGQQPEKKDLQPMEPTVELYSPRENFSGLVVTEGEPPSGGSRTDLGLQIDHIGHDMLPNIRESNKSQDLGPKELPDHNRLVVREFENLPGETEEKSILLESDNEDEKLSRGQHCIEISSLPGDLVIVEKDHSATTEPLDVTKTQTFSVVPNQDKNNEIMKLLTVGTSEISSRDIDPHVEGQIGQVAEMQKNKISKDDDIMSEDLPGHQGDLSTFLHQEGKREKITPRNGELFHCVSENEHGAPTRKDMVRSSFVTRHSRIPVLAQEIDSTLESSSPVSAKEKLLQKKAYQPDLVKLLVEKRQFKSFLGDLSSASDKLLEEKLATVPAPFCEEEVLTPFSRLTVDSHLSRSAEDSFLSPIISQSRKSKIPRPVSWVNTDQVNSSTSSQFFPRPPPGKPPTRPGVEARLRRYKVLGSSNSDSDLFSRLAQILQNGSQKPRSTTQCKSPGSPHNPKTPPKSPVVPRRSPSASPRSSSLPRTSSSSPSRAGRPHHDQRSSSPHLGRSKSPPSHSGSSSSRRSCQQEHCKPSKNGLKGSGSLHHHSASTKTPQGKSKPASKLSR

## [Cu+2].[Cu+2].[Cu+2].c1ccc(-c2csc(NCCN(CCNc3nc(-c4ccccn4)cs3)CCNc3nc(-c4ccccn4)cs3)n2)nc1.c1ccc(-c2csc(NCCN(CCNc3nc(-c4ccccn4)cs3)CCNc3nc(-c4ccccn4)cs3)n2)nc1 [[L2Cu3]6+]
[1]; JNK2
  % Inhibition Run 1: 22.9%
  % Inhibition Run 2: 15.4%
  % Inhibition, Mean: 19%
  mean % activity: 81%
[1]; JNK2, Run 1
  % activity: 77.1%
[1]; JNK2, Run 2
  % activity: 84.6%
[2]
  % Activation, Mean value: 12%
  % Inhibition Run 1: -26.4%
  % Inhibition Run 2: 2.3%
  % Inhibition, Mean: -12%
  mean % activity: 112%
[2]; Run 1
  % activity: 126.4%
[2]; Run 2
  % activity: 97.7%
[2]; 10 µM
  % Activity Run 1: 126.40%
  % Activity Run 2: 97.70%
[3]; CDK9-Cyclin T1
  % Activation, Mean value: 18%
  % Inhibition Run 1: -1.8%
  % Inhibition Run 2: -34.5%
  % Inhibition, Mean: -18%
  mean % activity: 118%
[3]; CDK9-Cyclin T1, Run 1
  % activity: 101.8%
[3]; CDK9-Cyclin T1, Run 2
  % activity: 134.5%
[3]; CDK9-Cyclin T1, 10 µM
  % Activity Run 1: 101.80%
  % Activity Run 2: 134.50%
[4]; TTBK2
  % Inhibition Run 1: 13%
  % Inhibition Run 2: -12.2%
  % Inhibition, Mean: 0.4%
  mean % activity: 100%
[4]; TTBK2, Run 1
  % activity: 87%
[4]; TTBK2, Run 2
  % activity: 112.2%
[5]; CAMK1
  % Inhibition Run 1: 94.9%
  % Inhibition Run 2: 96.1%
  % Inhibition, Mean: 96%
  mean % activity: 4.5%
[5]; CAMK1, Run 1
  % activity: 5.1%
[5]; CAMK1, Run 2
  % activity: 3.9%
[5]; CAMK1, 10 µM
  % Activity inhibition Mean: 95.5%
  % Activity inhibition Run 1: 94.9%
  % Activity inhibition Run 2: 96.1%
  % Activity remaining Run 1: 5.10%
  % Activity remaining Run 2: 3.90%
[6]; ERK1
  % Activation, Mean value: 1.15%
  % Inhibition Run 1: 6.5%
  % Inhibition Run 2: -8.8%
  % Inhibition, Mean: -1.15%
  mean % activity: 101%
[6]; ERK1, Run 1
  % activity: 93.5%
[6]; ERK1, Run 2
  % activity: 108.8%
[7]; MARK2
  % Inhibition Run 1: 29.8%
  % Inhibition Run 2: 21.6%
  % Inhibition, Mean: 26%
  mean % activity: 74%
[7]; MARK2, Run 1
  % activity: 70.2%
[7]; MARK2, Run 2
  % activity: 78.4%
[8]; IRAK1
  % Inhibition Run 1: 41.6%
  % Inhibition Run 2: 44.4%
  % Inhibition, Mean: 43%
  mean % activity: 57%
[8]; IRAK1, Run 1
  % activity: 58.4%
[8]; IRAK1, Run 2
  % activity: 55.6%
[9]; MST4
  % Inhibition Run 1: 74.5%
  % Inhibition Run 2: 70.2%
  % Inhibition, Mean: 72%
  mean % activity: 28%
[9]; MST4, Run 1
  % activity: 25.5%
[9]; MST4, Run 2
  % activity: 29.8%
[10]
  % Inhibition Run 1: 12.7%
  % Inhibition Run 2: -5.2%
  % Inhibition, Mean: 3.75%
  mean % activity: 96%
[10]; Run 1
  % activity: 87.3%
[10]; Run 2
  % activity: 105.2%
[11]
  % Activation, Mean value: 3.55%
  % Inhibition Run 1: -1.3%
  % Inhibition Run 2: -5.8%
  % Inhibition, Mean: -3.55%
  mean % activity: 104%
[11]; Run 1
  % activity: 101.3%
[11]; Run 2
  % activity: 105.8%
[12]
  % Inhibition Run 1: 49.3%
  % Inhibition Run 2: 39.6%
  % Inhibition, Mean: 44%
  mean % activity: 56%
[12]; Run 2
  % activity: 60.4%
